# Measured values taken from patent US11136625B2, “Gene expression signatures predictive of subject response to a multi-kinase inhibitor and methods of using the same” (Crown Bioscience, Inc. (Taicang), priority 2013, dated 2021).
# Tests used:
# [1] = system: cohort of 21 hepatocellular carcinoma (HCC) patient derived xenografts (PDXs); test: Clinical trial-like study of Sorafenib in a cohort of 21 HCC HuPrime PDXs; assay type: in vivo, Balb/c nude mice; conditions: 13 out of 21 PDXs; daily oral Sorafenib 50 mg/kg
# Description: (§1) Patient tumor samples and engraftment in immunocompromised mice. […] (<10).
# (§2) Evaluation of antitumor activity.
# Patient derived xenografts (PDXs) are considered experimental models mimicking patient tumors, or “patient avatars”. We performed a clinical-like trial (phase II-like) using a cohort of 21 hepatocellular carcinoma (HCC) patient derived xenografts (PDXs), also called patient avatar trial, for testing their response to multi-kinase inhibitor Sorafenib. […] Gene expression profiles of these PDXs were analyzed to reveal the mRNA expression signatures that may be predictive of the response to Sorafenib. This signature can be potentially used to develop companion diagnostics to stratify patent treatment, or individualized treatment.
# [2] = system: HCC-PDX model LIM574 (code 009); test: Sorafenib antitumor activity in HCC HuPrime PDX model LIM574; assay type: in vivo, Balb/c nude mice; conditions: 50 mg/kg p.o. qd × 14, P value 0.002
# Description: as §1, §2
# [3] = system: HCC-PDX model LIMsh050 (code 020); test: Sorafenib antitumor activity in HCC HuPrime PDX model LIMsh050; assay type: in vivo, Balb/c nude mice
# Description: (§3) We were interested in identifying models that would respond or not respond to Sorafenib. To this end, we tested a cohort of randomly selected 21 HCC HuPrime by treating them with Sorafenib.
# (§4) Patient tumor samples and engraftment in immunocompromised mice. Freshly and surgically removed tumor tissues were obtained from the patients diagnosed as HCC through collaboration with the Beijing Keluoen Translational Medicine Institute and Hebei Medical University Fourth Hospital with approval by the Institutional Review Boards of Hebei Medical University Fourth Hospital and the informed consents from patients. The engraftments of patient tumor fragments into immunocompromised mice subcutaneously have been broadly described by others. Briefly, the tumors were sliced into 3×3×3 mm3 fragments and inoculated subcutaneously on the flank of mice (Balb/c nude, 6-8 wks old, female, Beijing HFK Bioscience Co. Ltd., Beijing, China). The tumor growth was monitored twice weekly by using a caliper. The established tumor models from these patient samples, called passage 0 or P0, were serially re-engrafted to maintain tumors, these subsequent passages were called P1, 2, 3 . . . (<10). […]
# [4] = system: HCC-PDX model LIM1098 (code 005); test: Sorafenib antitumor activity in HCC HuPrime PDX model LIM1098; assay type: in vivo, Balb/c nude mice; conditions: 50 mg/kg qd × 14 p.o., P value 0.008
# Description: as §1, §2
# [5] = system: HCC-PDX model LIF1069 (code 017); test: Sorafenib antitumor activity in HCC HuPrime PDX model LIF1069; assay type: in vivo, Balb/c nude mice; conditions: 50 mg/kg p.o. qd × 14, P value 0.024
# Description: as §1, §2
# [6] = system: HCC-PDX model LIM1005 (code 008); test: Sorafenib antitumor activity in HCC HuPrime PDX model LIM1005; assay type: in vivo, Balb/c nude mice; conditions: 50 mg/kg p.o. qd × 14, P value 0.015
# Description: as §1, §2
# [7] = system: HCC-PDX model LIM1081 (code 004); test: Sorafenib antitumor activity in HCC HuPrime PDX model LIM1081; assay type: in vivo, Balb/c nude mice; conditions: 50 mg/kg p.o. qd × 13, P value 0.015
# Description: as §1, §2
# [8] = system: HCC-PDX model LIM612 (code 006); test: Sorafenib antitumor activity in HCC HuPrime PDX model LIM612; assay type: in vivo, Balb/c nude mice; conditions: 50 mg/kg p.o. Qd × 22, P value 0.001
# Description: as §1, §2
# [9] = system: HCC-PDX model LIM941 (code 010); test: Sorafenib antitumor activity in HCC HuPrime PDX model LIM941; assay type: in vivo, Balb/c nude mice; conditions: 50 mg/kg p.o. 5 days on/2 days off, P value <0.001
# Description: as §1, §2
# [10] = system: HCC-PDX model LIM1068 (code 016); test: Sorafenib antitumor activity in HCC HuPrime PDX model LIM1068; assay type: in vivo, Balb/c nude mice; conditions: 50 mg/kg p.o. qd × 13, P value 0.024
# Description: as §1, §2
# [11] = system: HCC-PDX model LIM1078 (code 018); test: Sorafenib antitumor activity in HCC HuPrime PDX model LIM1078; assay type: in vivo, Balb/c nude mice; conditions: 50 mg/kg p.o. qd × 13, P value 0.055
# Description: as §1, §2
# [12] = system: HCC-PDX model LIM1035 (code 007); test: Sorafenib antitumor activity in HCC HuPrime PDX model LIM1035; assay type: in vivo, Balb/c nude mice; conditions: 50 mg/kg p.o. qd × 14, P value 0.005
# Description: as §1, §2
# [13] = system: HCC-PDX model LIM1074 (code 011); test: Sorafenib antitumor activity in HCC HuPrime PDX model LIM1074; assay type: in vivo, Balb/c nude mice; conditions: 50 mg/kg p.o. qd × 13, P value 0.032
# Description: as §1, §2
# [14] = system: HCC-PDX model LIM752 (code 003); test: Sorafenib antitumor activity in HCC HuPrime PDX model LIM752; assay type: in vivo, Balb/c nude mice; conditions: 50 mg/kg p.o. qd × 14, P value <0.001
# Description: as §1, §2
# [15] = system: HCC-PDX model LIM1097 (code 014); test: Sorafenib antitumor activity in HCC HuPrime PDX model LIM1097; assay type: in vivo, Balb/c nude mice; conditions: 50 mg/kg p.o. qd × 14, P value 0.046
# Description: as §1, §2
# [16] = system: advanced hepatocellular carcinoma (HCC); conditions: background statement; cited from earlier work
# [17] = system: HCC-PDX model LIM801 (code 012); conditions: 50 mg/kg p.o. 5 days on/2 days off, P value 0.001
# Description: as §3, §4
# [18] = system: HCC-PDX model LIM1088 (code 019); test: Sorafenib antitumor activity in HCC HuPrime PDX model LIM1088; assay type: in vivo, Balb/c nude mice; conditions: 50 mg/kg p.o. qd × 13, P value 0.182
# Description: as §1, §2
# [19] = system: HCC-PDX model LIM334 (code 021); test: Sorafenib antitumor activity in HCC HuPrime PDX model LIM334; assay type: in vivo, Balb/c nude mice
# Description: as §1, §2
# [20] = system: HCC-PDX model LIM1025 (code 002); test: Sorafenib antitumor activity in HCC HuPrime PDX model LIM1025; assay type: in vivo, Balb/c nude mice; conditions: 50 mg/kg p.o. qd × 14, P value <0.001
# Description: as §1, §2
# [21] = system: HCC-PDX model LIM1054 (code 013); test: Sorafenib antitumor activity in HCC HuPrime PDX model LIM1054; assay type: in vivo, Balb/c nude mice; conditions: 50 mg/kg p.o. qd × 14, P value 0.045
# Description: as §1, §2
# [22] = system: HCC-PDX model LIM1057 (code 015); test: Sorafenib antitumor activity in HCC HuPrime PDX model LIM1057; assay type: in vivo, Balb/c nude mice; conditions: p.o. 50 mg/kg, qd × 14, P value 0.003
# Description: as §1, §2
smiles,measurement,setting,value
CNC(=O)c1cc(Oc2ccc(NC(=O)Nc3ccc(Cl)c(C(F)(F)F)c3)cc2)ccn1 [Sorafenib],PDXs that achieved effective tumor growth inhibition with % ΔT/ΔC<40% (p<0.05),[1],62%
same,ΔT/ΔC (day14-day15),[2],0.21
same,model response to Sorafenib (in words),"[3]; model L10050, daily oral 50 mg/kg",quite or partially resistant
same,ΔT/ΔC (day14-day15),"[3]; model LIMsh050, 50 mg/kg p.o. qd × 14, P value 0.134",0.78
same,ΔT/ΔC (day14-day15),[4],0.14
same,ΔT/ΔC (day14-day15),[5],0.47
same,ΔT/ΔC (day14-day15),[6],0.21
same,ΔT/ΔC (day14-day15),[7],0.14
same,ΔT/ΔC (day14-day15),[8],0.15
same,ΔT/ΔC (day14-day15),[9],0.23
same,ΔT/ΔC (day14-day15),[10],0.47
same,ΔT/ΔC (day14-day15),[11],0.48
same,ΔT/ΔC (day14-day15),[12],0.16
same,ΔT/ΔC (day14-day15),[13],0.35
same,ΔT/ΔC (day14-day15),[14],0.10
same,ΔT/ΔC (day14-day15),[15],0.41
same,increase survival for HCC patients,[16],3 months
same,ΔT/ΔC (day14-day15),[17],0.37
same,ΔT/ΔC (day14-day15),[18],0.54
same,model response to Sorafenib (in words),"[19]; model L10334, daily oral 50 mg/kg",quite or partially resistant
same,ΔT/ΔC (day14-day15),"[19]; model LIM334, 50 mg/kg p.o. 5 days on/2 days off, P value 0.659",1.13
same,ΔT/ΔC (day14-day15),[20],0.01
same,ΔT/ΔC (day14-day15),[21],0.38
same,ΔT/ΔC (day14-day15),[22],0.43
